Measurements published in paper PMC9114382, “The K-Ras(G12D)-inhibitory peptide KS-58 suppresses growth of murine CT26 colorectal cancer cell-derived tumors” (Scientific Reports, 2022).
Numbered stars: 1 amine (or outer) side, 2 acyl side, 3 side chain; on linkers, the order of the positions; unused ones are H or OH. Bridge positions count the residues as written; N and C are the ends. Square brackets hold non-standard residues; d marks the D form. Peptide text beside a SMILES is read from it. Phe(4-F) = N[C@@H](Cc1ccc(F)cc1)C(=O)O; X1 = CCCCCCC[C@H](N[*:1])C(=O)[*:2]; Nle = CCCC[C@H](N)C(=O)O; X2 = C(C[*:1])C[*:2]; βAla = NCCC(=O)O

Key:
[1] = Systemic safety in CT26 tumor-bearing mice (body and organ weights, kidney and liver histomorphology); type: in vivo, mouse
Method: Experimental procedures that involved animals and their care were conducted in compliance with the Guide for the Care and Use of Laboratory Animals[15] and ARRIVE guidelines[16],[17]. Animal experiments were approved by Animal Care and Use Committee of UNITECH Co. Ltd. (Kashiwa, Japan) (approval No. AGR IMF-210415A-30) and conducted at UNITECH in accordance with the guidelines. To establish subcutaneous allograft tumors, 1 × 10^6 CT26 cells/100 µL were subcutaneously injected into the left groin region of BALB/cCrSlc female mice (7 weeks old; Japan SLC, Inc., Shizuoka, Japan). Immediately before treatment, KS-58 was dissolved in DMSO and then diluted tenfold in normal saline. Tumor-baring mice in vehicle control, KS-58 (low), and KS-58 (high) groups were injected intravenously with vehicle (1:10 DMSO to saline, v/v), 10 mg/kg KS-58 solution, or 40 mg/kg KS-58 solution, respectively, once every 2 days for 17 days (n = 8 mice per major group, n = 3 mice per satellite group) (Fig. 1B). For anti-PD-1 monotherapy or combination treatment, GoInVivo Purified anti-mouse PD-1 (CD279, Cat.#114114, BioLegend, San Diego, CA, USA) was dissolved in PBS and injected intraperitoneally at 50 mg/kg on days 6, 8, and 10 (n = 8 mice in major groups, n = 3 in satellite groups). Tumor growth rate was recorded on day 1, 4, 8, 11, 15, and 17 by measuring the major and minor axes with a digital caliper. Measurements were transformed into tumor volumes using the formula tumor volume (mm^3) = major axis × minor axis^2 × 0.5. Tumors (with surrounding skin), liver, and kidneys were collected from satellite groups on day 15, fixed in formalin, and then maintained in 70% ethanol for histological analyses. Tumor, liver, and kidneys were collected from major groups on day 17 within 3 h of the last injection and weighed. The tumors were subsequently frozen in liquid nitrogen and stored at − 80 °C until homogenization for Western blotting.
Tumors, livers, and kidneys were harvested from mice and fixed with 10% neutral-buffered formalin. […]

[2] = estimated using RP-HPLC; cited from earlier work
[3] = Stability in mouse liver microsomes; type: in vitro ADME; settings: mouse hepatic microsomes (XenoTech), with NADP cofactor, 37 °C, 1 h incubation, LC-MS/MS, read-out: fraction of initial concentration remaining in mouse liver microsomes
Method: (§1) Experimental procedures that involved animals and their care were conducted in compliance with the Guide for the Care and Use of Laboratory Animals[15] and ARRIVE guidelines[16],[17]. Animal experiments were approved by the Animal Care and Use Committee of Osaka University (approval No. DouyakuR01-3–1) and conducted at Osaka University in accordance with the guidelines. LC–MS/MS data were obtained using a Xevo TQ-S mass spectroscopy system (Waters Corp., Milford, MA, USA) connected to an ACQUITY UPLC system (Waters) equipped with a BEH C18 column (1.7 μm, 2.1 × 50 mm, Waters). Mobile phase A was 0.1% formic acid in water and mobile phase B was 0.1% formic acid in acetonitrile. The gradient elution profile was 2% B at 0 min to 98% B at 1.8 min, and the flow rate was 0.5 mL/min.
(§2) For evaluation of stability, KS-58 was incubated with commercial hepatic microsomes (XenoTech Ltd, KS, USA) in X medium supplemented with nicotinamide adenine dinucleotide phosphate for 10 and 60 min at 37 °C. The fraction (%) remaining in the medium was determined using the LC–MS/MS system (Waters). We also examined the fraction (%) remaining in fresh mouse blood after 60 and 120 min of incubation at 37 °C using the same LC–MS/MS system.

[4] = Translocation to blood cells; type: in vitro ADME; settings: whole blood (Fig. 4D)
[5] = Stability in mouse whole blood; type: in vitro ADME; settings: fresh whole blood, 37 °C, 2 h incubation, LC-MS/MS, read-out: fraction of initial concentration intact in whole blood
Method: as §1, §2

[6] = Plasma protein binding (dialysis); type: in vitro ADME; settings: dialysis of plasma against PBS pH 7.4, 5 h, 37 °C, LC-MS/MS, human and mouse plasma (Fig. 4E)
Method: as §1
For evaluation of plasma protein binding, the plasma compartment containing KS-58 was dialyzed against PBS (pH 7.4) for 5 h at 37 °C and the concentrations remaining in each compartment were quantified by LC–MS/MS.

[7] = Pharmacokinetics after intravenous injection; type: in vivo, mouse; settings: 10 mg/kg i.v., LC-MS/MS
Method: as §1
For pharmacokinetics studies, KS-58 was dissolved in saline and administered intravenously to female BALB/c mice at 10 mg/kg. Serial blood samples (20 μL) were collected from the tail vein using heparinized tips at 7.5, 15, 30, 60, 120, 240, 320, and 1440 min after KS-58 administration. Aliquots (5 μL) of plasma obtained from each blood sample were treated with 50 μL acetonitrile and the organic layer was injected onto the LC–MS/MS system. Pharmacokinetic parameters were obtained by fitting the plasma concentration–time data to a noncompartmental model using PKPlus software (Northern Science Consulting Inc, Sapporo, Japan).

[8] = Stability in human liver microsomes; type: in vitro ADME; settings: human hepatic microsomes (XenoTech), with NADP cofactor, 37 °C, 1 h incubation, LC-MS/MS, read-out: fraction of initial concentration remaining in human liver microsomes
Method: as §1, §2

[9] = satellite groups, day 15, HE staining, n = 3

- remaining at 1 h [3]: 46.2%
- remaining at 2 h [5]: 92.3%
- fraction bound to plasma proteins [6]: more than 90%
- fraction unbound at 5 h ([6]; read-out: free fraction in plasma): < 0.1
- time at which plasma concentration decreased to ~50% of the initial concentration ([7]; mice): about 30 min
- plasma concentration after 4 h ([7]; mice, limit of detection ~250 nM): below the limit of detection
- half-life ([7]; mouse, iv, female BALB/c mice, plasma, noncompartmental, mean ± SD, n = 3): ~30 min
- remaining at 1 h [8]: 77%
Compound: CCCCCCC[C@@H]1NC(=O)[C@@H]2CSCCCSC[C@@H](NC(=O)[C@H](Cc3c[nH]c4ccccc34)NC(=O)[C@@H]3CCCN3C(=O)[C@H](CC(=O)O)NC(=O)[C@H](Cc3ccc(F)cc3)NC(=O)[C@H](CO)NC1=O)C(=O)NCCC(=O)N1CCC[C@H]1C(=O)N[C@@H](CCCC)C(=O)N2 [KS-58] (cyclo([βAla]P[Nle]C[X1]S[Phe(4-F)]DPW[dC]); linker 4-11 via X2)
- body weight gain/loss and weights of liver and kidney vs vehicle controls ([1]; KS-58 10 or 40 mg/kg i.v. every 2 days for 17 days, n = 8): neither body weight gain/loss (Fig. 2B) nor the weights of liver and kidney (Fig. 2C) were significantly altered
- kidney histomorphology [1, 9]: No obvious histological changes in any of the nephron segments
- liver histomorphology [1, 9]: hepatocellular hypertrophy with cytoplasmic eosinophilic change
- half-life in whole blood [2]: ~ 60 min
- translocation into blood cells [4]: a substantial fraction of KS-58 was translocated into blood cells
